Measured values taken from patent US8569489B2 (A.B. Intelpharm Limited, priority 2007, dated 2013).
Where a name gives a salt, the structure may show the parent alone. Read-outs that look alike come from different tables or passages of the source.

Assays:
[1] = system: H1-histamine receptors (bronchoconstrictor effect of histamine); test: Anesthetized guinea pigs, antagonism of the bronchoconstrictor effect of histamine (histamine bronchospasm model); format: in vivo, guinea pig; settings: for ED50: Cavia porcellus; for ED50 / Antihistaminic activity, guinea pigs in vivo, intravenous administration, ED50 / Antihistaminic activity, guinea pigs in vivo, peroral administration, ED50: anesthetized guinea pigs; for Duration of effective blockade of H1-histamine receptors: histamine bronchospasm model, oral dose of 3 mg/kg
Description: In tests on intact animals, substances were administered intravenously (5 minutes before the administration of histamine) and orally (2 hours before the beginning of the study).

histamine-induced itch = test: Itching induced by instillation of histamine solution into the eye of conscious guinea pigs; format: in vivo, guinea pig; settings: 3 mg/kg administered orally
Text: (Rukovodstvo po […] [Manual on experimental study of new pharmacological substances], Moscow, 2005, p. 511)

mice [2] = settings: mice perorally; literature value (footnotes * and **); cited from earlier work
[3] = system: isolated guinea pig ileum (spasmogenic effect of histamine); test: Isolated guinea pig ileum, suppression of the spasmogenic effect of histamine; format: cell-based; settings: histamine spasm, read-out: Antihistaminic activity, isolated ileum of guinea pig, IC50
Text: Study of the antihistaminic activity of the compounds on which a claim is made was done using known methodologies (Rukovodstvo po eksperimental'nomu izucheniyu novykh farmakologicheskikh veshchestv [Manual on experimental study of new pharmacological substances], Moscow, 2005, p. 489) on isolated guinea pig ileum (suppression of the spasmogenic effect of histamine) and on anesthetized guinea pigs (antagonism in relation to the bronchoconstrictor effect of histamine). In tests on intact animals, substances were administered intravenously (5 minutes before the administration of histamine) and orally (2 hours before the beginning of the study).

[4] = system: passive cutaneous anaphylaxis; test: Passive cutaneous anaphylaxis model in rats; format: in vivo, rat
Text: (Rukovodstvo po eksperimental'nomu izucheniyu novykh farmakologicheskikh veshchestv [Manual on experimental study of new pharmacological substances], Moscow, 2005, p. 511)

[5] = pH of aqueous solution of salts; format: physicochemical
mice [6] = test: Acute toxicity, mice perorally
[7] = po, orally 2 hours before the study, read-out: Antihistaminic activity, guinea pigs in vivo, peroral administration, ED50
[8] = intravenous, 5 minutes before histamine, read-out: Antihistaminic activity, guinea pigs in vivo, intravenous administration, ED50
[9] = intravenous, 5 minutes before histamine
[10] = orally 2 hours before the study

SMILES	Duration of effective blockade of H1-histamine receptors [1] [h]	Duration of the protective effect in the histamine-induced itch model (histamine-induced itch)	pH of aqueous solution [5]	IC50 [3] [nM]	Antihistaminic activity, guinea pigs in vivo, intravenous administration, ED50 [1, 9] [mg/kg]	Antihistaminic activity, guinea pigs in vivo, peroral administration, ED50 [1, 10] [mg/kg]	Acute toxicity, LD50 (mice [6]) [mg/kg]	further results
CN1CCCC(n2nc(Cc3ccc(Cl)cc3)c3ccccc3c2=O)CC1 (stereo not drawn) [Azelastine, reference compound]	48	diminishes significantly after 48 hours and disappears altogether after 72 hours						ED50 [1, 7]: 0.015 mg/kg; ED50 [1, 8]: 0.05 mg/kg; Acute toxicity, LD50 (mice [2]): 124-139** mg/kg
O=C(O)COCCN1CCN(C(c2ccccc2)c2ccc(Cl)cc2)CC1 (stereo not drawn) [Cetirizine, reference compound]	48	diminishes significantly after 48 hours and disappears altogether after 72 hours						IC50 ([3]; Cavia porcellus): 127 nM; ED50 [1, 7]: 0.2 mg/kg; ED50 [1, 8]: 0.07 mg/kg; Antiallergic effect, passive cutaneous anaphylactic model ([4]; dose 3 mg/kg): moderate and similar antiallergic effect
Cn1c(=O)[nH]c(=O)c2c1ncn2CCCCN1CCN(C(c2ccccc2)c2ccccc2)CC1 [Dihydrochloride, 7-/4-(4-benzhydrylpiperazinyl-1)butyl/-3-methylxanthine]			2.45					
Cl.Cl.Cn1cnc2c1c(=O)n(CCCCN1CCN(C(c3ccccc3)c3ccccc3)CC1)c(=O)n2C [I-v]				32	0.2	>1.5	>1000.0	
Cl.Cl.Cn1c(=O)c2c(ncn2CCCN2CCN(C(c3ccccc3)c3ccccc3)CC2)n(C)c1=O [II-d]				12	0.05		>1000.0	
Cl.Cl.Cn1c(=O)[nH]c(=O)c2c1ncn2CCCN1CCN(C(c2ccccc2)c2ccccc2)CC1 [II-e]				19	0.1		900.0	
Cl.Cl.Cn1c(=O)c2c(ncn2CCCCN2CCN(C(c3ccccc3)c3ccccc3)CC2)n(C)c1=O [II-f]				17	0.1	<1.5	750.0	
Cn1c(=O)[nH]c(=O)c2c1ncn2CCCCN1CCN(C(c2ccccc2)c2ccccc2)CC1 [II-g, 3-methyl-7-[4-(benzhydryl-4-piperazinyl-1)butyl]xanthine]	72	remains at a stable level for 2 days and decreases only after 72 hours		18	0.02	0.02	1300.0	Antiallergic effect, passive cutaneous anaphylactic model ([4]; dose 1 mg/kg): moderate and similar antiallergic effect
Cn1c(=O)[nH]c(=O)c2c1ncn2CCCCN1CCN(C(c2ccccc2)c2ccccc2)CC1 [Oxalate, 7-/4-(4-benzhydrylpiperazinyl-1)butyl/-3-methylxanthine]			3.44					
Cn1c(=O)[nH]c(=O)c2c1ncn2CCCCN1CCN(C(c2ccccc2)c2ccccc2)CC1.O=C(O)CCC(=O)O [Succinate, 7-/4-(4-benzhydrylpiperazinyl-1)butyl/-3-methylxanthine succinate]			4.85					Thermal stability (Thermal stability): good thermal stability
